# Data as given in patent publication US7083511B1, “Methods” (The University of Dundee, priority 1998, dated 2006).
# Starred links: 1 amine or outer side, 2 acyl side, 3 side chain; linkers in the order of their positions; H or OH if unused. Positions of bridges follow the written chain, without caps; N, C: chain ends. Non-standard residues stand in square brackets, D forms with d. Residues, ends and D or L forms follow the SMILES beside them. Adda = CO[C@@H](Cc1ccccc1)[C@@H](C)/C=C(C)/C=C/[C@H](N[*:1])[C@H](C)C(=O)[*:2]; dAsp(3S-Me) = C[C@H](C(=O)[*:3])[C@@H](N[*:1])C(=O)[*:2]; d(γGlu) = O=C(O)[C@@H](CCC(=O)[*:2])N[*:1]; NMeDha = C=C(NC)C(=O)O
# Key:
# [1] = tested on: SGK1; experiment: Activation of GST-SGK1 in transfected 293 cells (Example 5); format: cell-based, human
# Protocol: (§1) Cells were transiently transfected with DNA constructs expressing (A) GST-SGK1, (B), GST-SGK2α and (C) GST-SGK3. At 24 h after transfection, the cells were deprived of serum for 16 h, then exposed to 50 ng/ml IGF-1 (10 min), 400 ng/ml phorbol myristate acetate (PMA) (30 min), 10% serum (30 min), 1 μM dexamethasone (Dex, 60 min), 2 mM H2O2 (25 min), 5 μg/ml anisomycin (AN, 30 min), 0.4 M sorbitol (30 min), hypotonic stress (1 ml of water added to 3 ml of DMEM, 30 min), UV radiation (30 min after exposure to 200 J/m2) or left untreated (control). After each treatment, the cells were lysed in ice-cold lysis buffer and SGK activity in 100 μg of cell lysate protein was measured.
# (§2) FIG. 20. […] Cells were transiently transfected with DNA constructs expressing (A) GST-SGK1, (B) GST-SGK2α and (C) GST-SGK3. At 24 h after transfection, the cells were deprived of serum for 16 h. The transfectants were then pretreated for 10 min with 100 nM wortmannin or for 1 h with 100 μM LY294002 and then stimulated for 25 min with 2 mM H2O2.
# (§3) Expression of SGK isoforms in 293 cells. […] After each treatment, the cells were lysed and the activity of SGK isoforms was measured after affinity purification of the GST-fusion proteins on glutathione Sepharose, as described previously for SGK1 [18].
# [2] = tested on: SGK3; experiment: Activation of GST-SGK3 in transfected 293 cells (Example 5); format: cell-based, human
# Protocol: as §1, §2, §3
# [3] = tested on: SGK2α; experiment: Activation of GST-SGK2α in transfected 293 cells (Example 5); format: cell-based, human
# Protocol: as §1, §2, §3
# [4] = tested on: protein phosphatase 2A (PP2A); format: biochemical
# [5] = biological target: T1, SGK (Homo sapiens, UniProt O00141); experiment: Phosphorylation and activation of SGK by PDK1 in vitro; format: biochemical; conditions: 1 μM PtdIns(3,4,5)P3, with or without PS/PC lipid vesicles
# T1 construct: PEBG-SGK expressing full length SGK; made in house; host or cells: 293 cells
# T1 sequence (O00141 whole entry, looked up): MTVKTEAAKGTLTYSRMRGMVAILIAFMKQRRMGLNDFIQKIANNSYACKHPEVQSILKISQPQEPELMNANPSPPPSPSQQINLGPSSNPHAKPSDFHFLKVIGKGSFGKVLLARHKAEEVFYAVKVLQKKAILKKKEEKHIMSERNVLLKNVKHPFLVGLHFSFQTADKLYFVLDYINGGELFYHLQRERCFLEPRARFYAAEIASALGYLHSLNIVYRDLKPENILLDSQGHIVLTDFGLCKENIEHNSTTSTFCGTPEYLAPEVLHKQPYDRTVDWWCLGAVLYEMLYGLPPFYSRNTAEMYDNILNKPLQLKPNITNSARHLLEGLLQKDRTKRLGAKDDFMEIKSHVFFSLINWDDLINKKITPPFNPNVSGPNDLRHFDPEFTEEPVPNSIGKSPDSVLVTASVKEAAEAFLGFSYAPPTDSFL
# Protocol: (A) GST-SGK (0.3 μg) was phosphorylated using GST-PDK1 (0.1 μg) and [γ-^32P] ATP (500 cpm/pmol) as described under Methods. Where indicated (+), 1 μM PtdIns(3,4,5)P3 in lipid vesicles containing phosphatidylserine (100 μM) and phosphatidylcholine (100 μM) (PS/PC) were also included. The reactions were stopped by the addition of SDS to 2% and, after heating for 5 min at 95° C., the samples were subjected to electrophoresis on 10% SDS/polyacrylamide gels, stained with Coomasssie blue and then autoradiographed. The positions of the molecular mass markers are also indicated (B) Same as (A), except that unlabelled ATP was used instead of [γ-^32P] ATP. After incubation for 10 min at 30° C., 10 μl aliquots were assayed for SGK activity using Crosstide as substrate. The results are shown ±SD for three separate experiments.
# Phosphorylation and assay of SGK. Phosphorylation was carried out at 30° C. in 50 μl incubations containing 50 mM Tris/HCl pH 7.5, 0.1 mM EGTA, 0.1% (v/v) 2-mercaptoethanol, 2.5 μM PKI, 1 μM microcystin-LR, 10 mM magnesium chloride and 100 μM ATP. Where indicated lipid vesicles containing phosphatidylcholine (100 μM), phosphatidyl serine (100 μM) and PtdIns(3,4,5)P3 (1 μM) were also included. SGK activity was assayed exactly as described for PKB [6] using the peptide […] (SEQ. ID. NO:30) (“Crosstide”) at 30 μM as substrate. […]
# [6] = biological target: T2, SGK3 (Homo sapiens, UniProt Q96BR1); experiment: Activation of SGK3 by PDK1 in vitro; format: biochemical; conditions: 10 μM in PS/PC lipid vesicles
# T2 construct: made in house; host or cells: 293 cells
# T2 sequence (Q96BR1 68-496 limits assumed): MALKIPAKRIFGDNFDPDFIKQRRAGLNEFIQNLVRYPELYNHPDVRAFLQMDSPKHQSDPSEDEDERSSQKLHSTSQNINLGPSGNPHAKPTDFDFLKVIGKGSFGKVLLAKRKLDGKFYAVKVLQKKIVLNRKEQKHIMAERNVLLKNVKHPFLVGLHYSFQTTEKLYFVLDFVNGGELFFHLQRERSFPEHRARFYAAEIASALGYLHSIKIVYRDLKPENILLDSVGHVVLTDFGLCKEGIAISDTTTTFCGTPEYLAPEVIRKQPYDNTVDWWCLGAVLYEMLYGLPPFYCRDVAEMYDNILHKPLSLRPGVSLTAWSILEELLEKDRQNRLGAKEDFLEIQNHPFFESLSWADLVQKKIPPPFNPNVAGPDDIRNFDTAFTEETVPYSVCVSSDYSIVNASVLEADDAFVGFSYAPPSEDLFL
# Protocol: (§4) Each GST-SGK isoform (0.4 μg) was incubated for 20 min at 30° C. with protein phosphatase 2A (PP2A, 30 mU/ml) in a 10 μl incubation containing 20 mM Tris/HCl, pH 7.5, 0.1% (v/v) 2-mercaptoethanol, 0.1 mM EGTA and 1 mg/ml bovine serum albumin. After addition of microcystin-LR to 1 μM to inactivate PP2A, SGK (0.4 μg) was phosphorylated for 30 min at 30° C. in a mixture (20 μl) containing 50 mM Tris/HCl, pH 7.5, 10 mM MgCl2, 0.1% (v/v) 2-mercaptoethanol, 0.1 mM EGTA, GST-PDK1 (0.03–300 ng) diluted in Buffer C and 100 μM unlabelled ATP. SGK assays were initiated by the addition of 30 μl of a mixture containing 50 mM Tris/HCl, pH 7.5, 10 mM MgCl2, 0.1% (v/v) 2-mercaptoethanol, 0.1 mM EGTA, 100 μM [γ-^32P] ATP (500 c.p.m/pmol), 50 μM of the peptide substrate Crosstide ([…]) (SEQ. ID. NO:30) and 4.2 μM of residues 5–24 of the specific protein inhibitor of adenosine 3′5′ cyclic monophosphate-dependent protein kinase. After 10 min at 30° C., the reactions were terminated by spotting aliquots on to P81 phosphocellulose paper, followed by immediate immersion in 75 mM phosphoric acid. The papers were washed, dried and analysed. One unit (U) of SGK was that amount which phosphorylated 1 nmole of Crosstide in one min.
# [7] = biological target: T3, SGK2 (Homo sapiens, UniProt Q9HBY8); experiment: Activation of SGK2 by PDK1 in vitro; format: biochemical; conditions: 10 μM in PS/PC lipid vesicles
# T3 construct: pEBG-SGK2α expressing full length of SGK2α; made in house; host or cells: 293 cells
# T3 sequence (Q9HBY8 1-367): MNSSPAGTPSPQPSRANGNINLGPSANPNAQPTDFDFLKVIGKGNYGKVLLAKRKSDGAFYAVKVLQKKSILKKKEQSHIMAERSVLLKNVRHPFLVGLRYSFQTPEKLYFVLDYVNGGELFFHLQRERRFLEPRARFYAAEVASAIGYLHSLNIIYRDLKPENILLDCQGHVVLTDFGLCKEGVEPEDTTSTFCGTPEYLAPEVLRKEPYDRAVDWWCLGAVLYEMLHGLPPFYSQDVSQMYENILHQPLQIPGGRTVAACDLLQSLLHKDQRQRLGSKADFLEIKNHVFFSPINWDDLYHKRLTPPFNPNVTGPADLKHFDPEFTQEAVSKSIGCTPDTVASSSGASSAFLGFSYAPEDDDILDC
# Protocol: as §4
# [8] = IGF-1 50 ng/ml 10 min, H2O2 2 mM 25 min
# [9] = 10% serum 30 min, 0.4 M sorbitol 30 min
compound,measurement,setting,value
OO [hydrogen peroxide],Activation of SGK1 by the stimulus,[1]; [8],five fold
same,Activation of SGK3 by the stimulus,[2]; [8],5 fold
same,Activation of SGK2α by the stimulus,[3]; [8],5 fold
"C=C1C(=O)N[C@H](C)C(=O)N[C@@H](CC(C)C)C(=O)N[C@@H](C(=O)O)[C@H](C)C(=O)N[C@@H](CCCNC(=N)N)C(=O)N[C@@H](/C=C/C(C)=C/[C@H](C)[C@H](Cc2ccccc2)OC)[C@H](C)C(=O)N[C@@H](C(=O)O)CCC(=O)N1C [microcystin, microcystin-LR] (R[Adda][d(γGlu)][NMeDha][dA]L[dAsp(3S-Me)]-OH; lactam N-7)",Effect on inactivation of GST-SGK by PP2A,[4],prevented
OC[C@@H](O)[C@@H](O)[C@H](O)[C@@H](O)CO [sorbitol],Effect of the stimulus on SGK1 activity (in words),[1]; [9],potently inhibited
same,Effect of the stimulus on SGK3 activity (in words),[2]; [9],had no effect
same,Effect of the stimulus on SGK2α activity (in words),[3]; [9],had no effect
"PtdIns(3,4,5)P3",Effect on phosphorylation and activation of SGK by PDK1,[5],unaffected
same,Effect on activation of SGK3 by PDK1,[6],slightly inhibited
same,Effect on activation of SGK2 by PDK1,[7],slightly inhibited
